The record followed here is patent publication US20240101531A1, “PYRIDINAMINE DERIVATIVES AND THEIR USE AS POTASSIUM CHANNEL MODULATORS” (Xenon Pharmaceuticals Inc., priority 2022, published 2024).

Each structure is given as a SMILES string.

This test addresses human KV7.2/KV7.3 (Homo sapiens (Human), UniProt O43525+O43526). Briefly: Potassium flux assay (IPG-2 AM dye). The settings on record: TREX HEK 293 or HEK 293 cells expressing human KV7.2/KV7.3; arithmetic mean values. In kind it is cell-based. The gist of the method:
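HEK 293 or TREX HEK 293 cells stably expressing human KV7.2/KV7.3 (tetracycline-induced where needed), loaded with IPG-2 AM, then compound for 20 min at room temperature. Flux triggered by K challenge buffer (10 mM KCl, pH 7.4), read at 530/558 nm; EC50 from 16-point 2-fold series from 30 μM, normalised to DMSO and reference modulator.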

One may read the EC50 as the midpoint of the concentration-response curve. `CC(=O)N1CCC[C@H](Oc2ccc3c(Nc4ccc(Cl)nc4)nccc3c2)C1` [Example 122, (S)-1-(3-((1-((6-chloropyridin-3-yl)amino)isoquinolin-6-yl)oxy)piperidin-1-yl)ethan-1-one]: the EC50 is 1000 to 10000 nM.
Consider `CC(=O)N1CCC[C@@H](Oc2ccc3c(Nc4ccc(Cl)nc4)nccc3c2)C1` [Example 123, (R)-1-(3-((1-((6-chloropyridin-3-yl)amino)isoquinolin-6-yl)oxy)piperidin-1-yl)ethan-1-one], for which the EC50 is under 1000 nM.
With `Cc1ncc(Nc2nccc3cc(OCC4(C#N)CC4)ccc23)cn1` [Example 127, 1-(((1-((2-methylpyrimidin-5-yl)amino)isoquinolin-6-yl)oxy)methyl)cyclopropane-1-carbonitrile], the EC50 was under 1000 nM.
Regarding `CN1CC(F)(COc2ccc3c(Nc4ccc(Cl)nc4)nccc3c2)C1` [Example 128, N-(6-chloropyridin-3-yl)-6-((3-fluoro-1-methylazetidin-3-yl)methoxy)isoquinolin-1-amine], the EC50 was in the range of 10000 to 30000 nM.
Turning to `OCc1ncc(Nc2nccc3cc(OCC4(F)CC4)ccc23)cn1` [Example 129, (5-((6-((1-fluorocyclopropyl)methoxy)isoquinolin-1-yl)amino)pyrimidin-2-yl)methanol], the EC50 fell in the range of 1000 to 10000 nM.
With `CC[C@@H](OC)c1ccc2c(Nc3ccc(Cl)nc3)nccc2c1` [Example 130, (R)—N-(6-chloropyridin-3-yl)-6-(1-methoxypropyl)isoquinolin-1-amine], the EC50 lay in the range of 10000 to 30000 nM.
As for `CC[C@H](OC)c1ccc2c(Nc3ccc(Cl)nc3)nccc2c1` [Example 131, (S)—N-(6-chloropyridin-3-yl)-6-(1-methoxypropyl)isoquinolin-1-amine], the figure is at least 30000 nM; as for `CO[C@H](C)c1ccc2c(Nc3ccc(Cl)nc3)nccc2c1` [Example 132, (R)-N-(6-chloropyridin-3-yl)-6-(1-methoxyethyl)isoquinolin-1-amine], 10000 to 30000 nM; as for `CO[C@@H](C)c1ccc2c(Nc3ccc(Cl)nc3)nccc2c1` [Example 133, (S)-N-(6-chloropyridin-3-yl)-6-(1-methoxyethyl)isoquinolin-1-amine], 10000 to 30000 nM.
As for `N#CCC1(COc2ccc3c(Nc4ccc(Cl)nc4)nccc3c2)COC1` [Example 134, 2-(3-(((1-((6-chloropyridin-3-yl)amino)isoquinolin-6-yl)oxy)methyl)oxetan-3-yl)acetonitrile], the figure is under 1000 nM; as for `Clc1ccc(Nc2nccc3cc(O[C@H]4CCC5(COC5)C4)ccc23)cn1` [Example 135, (S)-6-((2-oxaspiro[3.4]octan-6-yl)oxy)-N-(6-chloropyridin-3-yl)isoquinolin-1-amine], under 1000 nM; as for `C#CC(C)(C)COc1ccc2c(Nc3ccc(Cl)nc3)nccc2c1` [Example 136, N-(6-chloropyridin-3-yl)-6-((2,2-dimethylbut-3-yn-1-yl)oxy)isoquinolin-1-amine], 1000 to 10000 nM.
For the molecule `Clc1ccc(Nc2nccc3cc(OCC4(C5CC5)CC4)ccc23)cn1` [Example 137, 6-([1,1′-bi(cyclopropan)]-1-ylmethoxy)-N-(6-chloropyridin-3-yl)isoquinolin-1-amine], the EC50 was under 1000 nM.
The value for `Clc1ccc(Nc2nccc3cc(O[C@@H]4CCC5(COC5)C4)ccc23)cn1` [Example 138, (R)-6-((2-oxaspiro[3.4]octan-6-yl)oxy)-N-(6-chloropyridin-3-yl)isoquinolin-1-amine] was under 1000 nM; that for `C[C@@H](Oc1ccc2c(Nc3ccc(Cl)nc3)nccc2c1)C1(F)CC1` [Example 139, (R)-N-(6-chloropyridin-3-yl)-6-(1-(1-fluorocyclopropyl)ethoxy)isoquinolin-1-amine] was 1000 to 10000 nM; that for `C[C@H](Oc1ccc2c(Nc3ccc(Cl)nc3)nccc2c1)C1(F)CC1` [Example 140, (S)-N-(6-chloropyridin-3-yl)-6-(1-(1-fluorocyclopropyl)ethoxy)isoquinolin-1-amine] was under 1000 nM.
As for `FC1(COc2ccc3c(Nc4ccc(Cl)nc4)nccc3c2)CCC1` [Example 141, N-(6-chloropyridin-3-yl)-6-((1-fluorocyclobutyl)methoxy)isoquinolin-1-amine], the EC50 was 1000 to 10000 nM.
As to `CN(c1cnc(Cl)nc1)c1nccc2cc(OCC3(F)CC3)ccc12` [Example 144, N-(2-chloropyrimidin-5-yl)-6-((1-fluorocyclopropyl)methoxy)-N-methylisoquinolin-1-amine], the EC50 is at least 30000 nM.
Turning to `N#CC(F)(COc1ccc2c(Nc3cnc(Cl)nc3)nccc2c1)C1CC1` (stereo not drawn) [Example 146, 3-((1-((2-chloropyrimidin-5-yl)amino)isoquinolin-6-yl)oxy)-2-cyclopropyl-2-fluoropropanenitrile], the EC50 was under 1000 nM.
With `N#CCC1(COc2ccc3c(Nc4cnc(Cl)nc4)nccc3c2)CC1` [Example 147, 2-(1-(((1-((2-chloropyrimidin-5-yl)amino)isoquinolin-6-yl)oxy)methyl)cyclopropyl)acetonitrile], the EC50 is under 1000 nM.
For the molecule `C[C@]1(O)CCC[C@@H](Oc2ccc3c(Nc4ccc(Cl)nc4)nccc3c2)C1` [Example 148, (1S,3R)-3-((1-((6-chloropyridin-3-yl)amino)isoquinolin-6-yl)oxy)-1-methylcyclohexan-1-ol], the EC50 is under 1000 nM.
As for `C[C@@]1(O)CCC[C@H](Oc2ccc3c(Nc4ccc(Cl)nc4)nccc3c2)C1` [Example 149, (1R,3S)-3-((1-((6-chloropyridin-3-yl)amino)isoquinolin-6-yl)oxy)-1-methylcyclohexan-1-ol], the figure is under 1000 nM.
Turning to `Cn1ccc(COc2ccc3c(Nc4ccc(Cl)nc4)nccc3c2)n1` [Example 150, N-(6-chloropyridin-3-yl)-6-((1-methyl-1H-pyrazol-3-yl)methoxy)isoquinolin-1-amine], the EC50 is under 1000 nM.
For `C#CC1(COc2ccc3c(Nc4ccc(Cl)nc4)nccc3c2)CC1` [Example 151, N-(6-chloropyridin-3-yl)-6-((1-ethynylcyclopropyl)methoxy)isoquinolin-1-amine], the EC50 was under 1000 nM.
Regarding `CC(C)C1(COc2ccc3c(Nc4ccc(Cl)nc4)nccc3c2)COC1` [Example 152, N-(6-chloropyridin-3-yl)-6-((3-isopropyloxetan-3-yl)methoxy)isoquinolin-1-amine], the EC50 was under 1000 nM.
As to `OC1CC2(C1)CC(Oc1ccc3c(Nc4ccc(Cl)nc4)nccc3c1)C2` (stereo not drawn) [Example 153, 6-((1-((6-chloropyridin-3-yl)amino)isoquinolin-6-yl)oxy)spiro[3.3]heptan-2-ol], the EC50 was under 1000 nM.
Regarding `Clc1ccc(Nc2nccc3cc(OCC4COCCO4)ccc23)cn1` (stereo not drawn) [Example 154, 6-((1,4-dioxan-2-yl)methoxy)-N-(6-chloropyridin-3-yl)isoquinolin-1-amine], the EC50 was under 1000 nM.
Consider `OCC(F)(F)COc1ccc2c(Nc3ccc(Cl)nc3)nccc2c1` [Example 155, 3-((1-((6-chloropyridin-3-yl)amino)isoquinolin-6-yl)oxy)-2,2-difluoropropan-1-ol], for which the EC50 lay within 1000 to 10000 nM.
Turning to `Cc1oncc1COc1ccc2c(Nc3ccc(Cl)nc3)nccc2c1` [Example 156, N-(6-chloropyridin-3-yl)-6-((5-methylisoxazol-4-yl)methoxy)isoquinolin-1-amine], the EC50 was under 1000 nM.
The value for `Clc1ccc(Nc2nccc3cc(OCc4ccno4)ccc23)cn1` [Example 157, N-(6-chloropyridin-3-yl)-6-(isoxazol-5-ylmethoxy)isoquinolin-1-amine] was under 1000 nM.
On to `Clc1ccc(Nc2nccc3cc(OCc4cnc(Cc5cccnc5)o4)ccc23)cn1` [Example 158, N-(6-chloropyridin-3-yl)-6-((2-(pyridin-3-ylmethyl)oxazol-5-yl)methoxy)isoquinolin-1-amine], for which the EC50 was in the range of 1000 to 10000 nM.
With `C[C@@H](COc1ccc2c(Nc3ccc(Cl)nc3)nccc2c1)c1cnn(C)c1` [Example 159, (R)—N-(6-chloropyridin-3-yl)-6-(2-(1-methyl-1H-pyrazol-4-yl)propoxy)isoquinolin-1-amine], the EC50 lay within 1000 to 10000 nM.
As to `C[C@H](COc1ccc2c(Nc3ccc(Cl)nc3)nccc2c1)c1cnn(C)c1` [Example 160, (S)—N-(6-chloropyridin-3-yl)-6-(2-(1-methyl-1H-pyrazol-4-yl)propoxy)isoquinolin-1-amine], the EC50 is 1000 to 10000 nM.
With `CC#CC(C)(C)COc1ccc2c(Nc3ccc(Cl)nc3)nccc2c1` [Example 161, N-(6-chloropyridin-3-yl)-6-((2,2-dimethylpent-3-yn-1-yl)oxy)isoquinolin-1-amine], the EC50 was in the range of 1000 to 10000 nM.
For the molecule `CNc1cc(Nc2nccc3cc(OCC4(C)COC4)ccc23)cnc1Cl` [Example 162, 2-chloro-N^3-methyl-N^5-(6-((3-methyloxetan-3-yl)methoxy)isoquinolin-1-yl)pyridine-3,5-diamine], the EC50 is under 1000 nM.
As to `CC1(COc2ccc3c(Nc4cnc(Cl)c(N)c4)nccc3c2)COC1` [Example 163, 2-chloro-N^5-(6-((3-methyloxetan-3-yl)methoxy)isoquinolin-1-yl)pyridine-3,5-diamine], the EC50 is under 1000 nM.
As for `Cc1nn(C)cc1COc1ccc2c(Nc3ccc(Cl)nc3)nccc2c1` [Example 165, N-(6-chloropyridin-3-yl)-6-((1,3-dimethyl-1H-pyrazol-4-yl)methoxy)isoquinolin-1-amine], the figure is under 1000 nM.
In the case of `COc1nn(C)cc1COc1ccc2c(Nc3ccc(Cl)nc3)nccc2c1` [Example 166, N-(6-chloropyridin-3-yl)-6-((3-methoxy-1-methyl-1H-pyrazol-4-yl)methoxy)isoquinolin-1-amine], the EC50 is under 1000 nM.
As for `Cc1ncsc1C(=O)N[C@H]1CC[C@@H](Oc2ccc3c(Nc4ccc(Cl)nc4)nccc3c2)CC1` [Example 167, N-((1s,4s)-4-((1-((6-chloropyridin-3-yl)amino)isoquinolin-6-yl)oxy)cyclohexyl)-4-methylthiazole-5-carboxamide], the figure is 1000 to 10000 nM.
